Where two headings read alike, the source gives them in different places.
Key:
SK-MEL-28 tumor cells = experiment: Cell growth inhibition assay (CellTiter-Glo), SK-MEL-28; conditions: Homo sapiens, SK-MEL-28, 72 h, read-out: Activity in SK-MEL-28 Tumor Cells;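 further: luminescent total ATP as a proxy for cell number, threefold serial dilutions at 0.2% DMSO, percent growth inhibition versus DMSO vehicle control wells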
B-Raf = B-Raf (Homo sapiens, UniProt P15056); experiment: B-Raf Accelerated MEK ATPase assay (BRAMA); type: biochemical
Procedure: Compounds of the present invention were tested for B-Raf […] inhibitory activity in a B-Raf Accelerated MEK ATPase assay (BRAMA). The BRAMA assay is a high sensitivity assay which measures an intrinsic MEK-mediated ATP hydrolysis uncoupled from downstream ERK phosphorylation by coupling the formation of ADP to NADH oxidation through the enzymes pyruvate kinase and lactate dehydrogenase. When ADP production is initiated by addition of catalytic amounts of an activated RAF enzyme and non-phosphorylated MEK, one observes robust ADP production concomitant with RAF-mediated phosphorylation of MEK. Specific details of the assay are disclosed in: C. Rominger, M. Schaber, E. May. Assay for B-Raf Activity Based on Intrinsic MEK ATPase Activity.

HT-29 tumor cells = experiment: Cell growth inhibition assay (CellTiter-Glo), HT-29; conditions: Homo sapiens, HT-29, 72 h, read-out: Activity in HT-29 Tumor Cells;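 further: ATP content read by luminescence as proxy for cell number, growth inhibition versus DMSO vehicle wells, 0.2% DMSO final, nine serial threefold compound dilutions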
Procedure: (§1) Cell Growth Inhibition Assays Human colon tumor cells (Colo205) were cultured in RPMI (Mediatech 50-020-PB) containing 10% FBS and 1% penicillin-streptomycin. […] Human melanoma cancer cells (A375-F11S) were cultured in RPMI (Mediatech 50-020-PB) containing 10% FBS, 1% sodium pyruvate, and 1% penicillin-streptomycin. Human colon cancer cells (HT-29) were cultured in high glucose DMEM (Mediatech 50-013-PB) containing 10% FBS and 1% penicillin-streptomycin. Human melanoma cancer cells (SK-MEL-3) were cultured in McCoy's 5A (50-025-PB) containing 15% FBS, and 1% penicillin-streptomycin. All cell lines were maintained at 37° C. in a humidified 5% CO2, 95% air incubator.
(§2) The next day, compounds were diluted as follows: For 96-well assays, 13.5 μl of compound in DMSO were diluted using nine (9) serial 1:3 dilutions of 4.5 μl in 9 μl of DMSO. Medium (270 μl/well of RPMI with 10% FBS and 1% penicillin-streptomycin) was added to the plates. Aliquots (7 μl) were added to cells in the final assay giving a final DMSO concentration of 0.2%. For 384-well assays, 15 μl of compound in DMSO were diluted using nine (9) serial 1:3 dilutions of 5 μl in 10 μl of DMSO, followed by a further dilution of 5 μl of compound with 95 μl of medium, of which 2 μl are added to cells in the final assay giving a final DMSO concentration of 0.2%. Cells were incubated at 37° C., 5% CO2 for 3 days.
(§3) Total ATP was measured (as a surrogate estimate of cell number) using CellTiter-Glo® (Promega G7571) reagent. Briefly, plates were removed from the incubator and allowed to equilibrate to room temperature for 30 minutes. CellTiter-Glo® (25 μl or 55 μl for 384-well or 96-well assays, respectively) reagent was added to each well and plates were shaken on an orbital plate shaker for 2 minutes. Plates were incubated without shaking for a further 30 minutes and read on an LJL Analyst GT reader in luminometer mode with an integration time of 0.5 seconds per well. Percent inhibition of cell growth was calculated relative to DMSO vehicle-treated control wells.

A375P tumor cells = experiment: Cell growth inhibition assay (CellTiter-Glo), A375P; conditions: Homo sapiens, 72 h, read-out: Activity in A375P Tumor Cells;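 further: total ATP luminescence used as proxy for cell number, serial threefold compound dilutions at 0.2% DMSO, growth inhibition expressed versus DMSO vehicle-treated wells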
Colo205 tumor cells = experiment: Cell growth inhibition assay (CellTiter-Glo), Colo205; conditions: Homo sapiens, COLO 205, 72 h, read-out: Activity in Colo205 Tumor Cells;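 further: growth measured via total ATP luminescence (CellTiter-Glo) as a proxy for cell number, inhibition expressed against DMSO-treated control wells, 3-day exposure at 0.2% final DMSO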
SK-MEL-3 tumor cells = experiment: Cell growth inhibition assay (CellTiter-Glo), SK-MEL-3; conditions: Homo sapiens, SK-MEL3, 72 h, read-out: Activity in SK-MEL-3 Tumor Cells;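 further: human melanoma cells grown with compound for 3 days in 0.2% DMSO, total ATP read by luminescence as proxy for cell number, growth inhibition versus DMSO-treated wells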
Procedure: as §1, §2, §3

[1] = BRAMA enzyme assay, class by pIC50, read-out: B-Raf Activity

| SMILES | IC50 (SK-MEL-28 tumor cells) | IC50 (B-Raf; [1]) | IC50 (HT-29 tumor cells) | IC50 (A375P tumor cells) | IC50 (Colo205 tumor cells) | IC50 (SK-MEL-3 tumor cells) | IC50 (B-Raf) | B-Raf Activity (B-Raf; BRAMA enzyme assay, class by pIC50) |
| --- | --- | --- | --- | --- | --- | --- | --- | --- |
| CCNc1nc(-c2ccc(Cl)c(OC)c2)c(-c2ccnc(Nc3ccc(OCCN4CCCC4)c(Cl)c3)n2)s1 [Example 49, 4-[4-[4-Chloro-3-(methyloxy)phenyl]-2-(ethylamino)-1,3-thiazol-5-yl]-N-(3-chloro-4-{[2-(1-pyrrolidinyl)ethyl]oxy}phenyl)-2-pyrimidinamine] | 0.5 to 5 µM | < 0.1 µM | < 0.5 µM | < 0.5 µM | 0.5 to 5 µM | < 0.5 µM |  |  |
| CCNc1nc(-c2cc(OC)cc(OC)c2)c(-c2ccnc(Nc3ccc(OC4CCN(CCS(C)(=O)=O)CC4)c(OC)c3)n2)o1 [Example 95] | 0.5 to 5 µM | < 0.1 µM | 0.5 to 5 µM | 0.5 to 5 µM | 0.5 to 5 µM | 0.5 to 5 µM |  |  |
| CCNc1nc(-c2cc(C)cc(OC)c2)c(-c2ccnc(Nc3ccc(OCCOC)c(F)c3)n2)s1 [Example 38, 4-{2-(Ethylamino)-4-[3-methyl-5-(methyloxy)phenyl]-1,3-thiazol-5-yl}-N-(3-fluoro-4-{[2-(methyloxy)ethyl]oxy}phenyl)-2-pyrimidinamine] | 0.5 to 5 µM | < 0.1 µM | < 0.5 µM | < 0.5 µM | < 0.5 µM | < 0.5 µM |  |  |
| CCNc1nc(-c2cc(OC)cc(OC)c2)c(-c2ccnc(Nc3ccc(N4CCN(CCF)CC4)c(F)c3)n2)o1 [Example 117] | 0.5 to 5 µM | < 0.1 µM | 0.5 to 5 µM | 0.5 to 5 µM | < 0.5 µM | 0.5 to 5 µM |  |  |
| COc1cccc(-c2nc(CO)sc2-c2ccnc(Nc3ccc(OCCN4CCCC4)c(F)c3)n2)c1 [Example 60, {5-{2-[(3-Fluoro-4-{[2-(1-pyrrolidinyl)ethyl]oxy}phenyl)amino]-4-pyrimidinyl}-4-[3-(methyloxy)phenyl]-1,3-thiazol-2-yl}methanol] | 0.5 to 5 µM | < 0.1 µM | < 0.5 µM | 0.5 to 5 µM | < 0.5 µM | < 0.5 µM |  |  |
| CCNc1nc(-c2cc(OC)cc(OC)c2)c(-c2ccnc(Nc3ccc(N4CCN(CCO)CC4)nc3)n2)o1 [Example 108] | 0.5 to 5 µM | < 0.1 µM | 0.5 to 5 µM | 0.5 to 5 µM | < 0.5 µM | 0.5 to 5 µM |  |  |
| COc1cc(OC)cc(-c2nc(NC3CC3)sc2-c2ccnc(Nc3ccc(O[C@@H]4CCN(CCF)C4)nc3)n2)c1 [Example 19, 4-[4-[3,5-Bis(methyloxy)phenyl]-2-(cyclopropylamino)-1,3-thiazol-5-yl]-N-(6-{[(3R)-1-(2-fluoroethyl)-3-pyrrolidinyl]oxy}-3-pyridinyl)-2-pyrimidinamine] | < 0.5 µM | < 0.1 µM | < 0.5 µM | < 0.5 µM | < 0.5 µM | < 0.5 µM |  |  |
| COc1cc(C)cc(-c2nc(C(C)C)oc2-c2ccnc(Nc3ccc(N4CCOCC4)nc3)n2)c1 [Example 99] | 0.5 to 5 µM | < 0.1 µM | 0.5 to 5 µM | 0.5 to 5 µM | 0.5 to 5 µM | 0.5 to 5 µM |  |  |
| CCNc1nc(-c2cc(OC)cc(OC)c2)c(-c2ccnc(Nc3ccc(OC4CCN(CCOC)CC4)c(F)c3)n2)o1 [Example 89] | 0.5 to 5 µM | < 0.1 µM | 0.5 to 5 µM | 0.5 to 5 µM | 0.5 to 5 µM | < 0.5 µM |  |  |
| CCNc1nc(-c2cccc(OC)c2)c(-c2ccnc(Nc3ccc(N4CCOCC4)nc3)n2)s1 [Example 42, 4-{2-(Ethylamino)-4-[3-(methyloxy)phenyl]-1,3-thiazol-5-yl}-N-[6-(4-morpholinyl)-3-pyridinyl]-2-pyrimidinamine] | 0.5 to 5 µM | < 0.1 µM | < 0.5 µM | < 0.5 µM | < 0.5 µM | < 0.5 µM |  |  |
| CCNc1nc(-c2cc(OC)cc(OC)c2)c(-c2ccnc(Nc3ccc(N4CCN(CCS(C)(=O)=O)CC4)c(F)c3)n2)o1 [Example 116] | 0.5 to 5 µM | < 0.1 µM | 0.5 to 5 µM | 0.5 to 5 µM | < 0.5 µM | < 0.5 µM |  |  |
| CCNc1nc(-c2cc(C)cc(OC)c2)c(-c2ccnc(Nc3ccc(N4CCN(CCF)CC4)c(F)c3)n2)o1 [Example 128] | 0.5 to 5 µM |  | 0.5 to 5 µM | 0.5 to 5 µM | < 0.5 µM | 0.5 to 5 µM | < 0.1 µM |  |
| CCNc1nc(-c2cc(OC)cc(OC)c2)c(-c2ccnc(Nc3ccc(N4CCN(CCF)CC4)c(F)c3)n2)s1 [Example 8, 4-[4-[3,5-Bis(methyloxy)phenyl]-2-(ethylamino)-1,3-thiazol-5-yl]-N-{3-fluoro-4-[4-(2-fluoroethyl)-1-piperazinyl]phenyl}-2-pyrimidinamine] | < 0.5 µM | < 0.1 µM | < 0.5 µM | 0.5 to 5 µM | < 0.5 µM | < 0.5 µM |  |  |
| CCNc1nc(-c2cc(C)cc(OC)c2)c(-c2ccnc(Nc3ccc(OC4CCN(CCS(C)(=O)=O)CC4)c(F)c3)n2)s1 [Example 32, 4-{2-(Ethylamino)-4-[3-methyl-5-(methyloxy)phenyl]-1,3-thiazol-5-yl}-N-[3-fluoro-4-({1-[2-(methylsulfonyl)ethyl]-4-piperidinyl}oxy)phenyl]-2-pyrimidinamine] | < 0.5 µM | < 0.1 µM | < 0.5 µM | < 0.5 µM | < 0.5 µM | < 0.5 µM |  |  |
| CCNc1nc(-c2cc(C)cc(OC)c2)c(-c2ccnc(Nc3ccc(N4CCN(C)CC4)c(OC)c3)n2)s1 [Example 33, 4-{2-(Ethylamino)-4-[3-methyl-5-(methyloxy)phenyl]-1,3-thiazol-5-yl}-N-[3-(methyloxy)-4-(4-methyl-1-piperazinyl)phenyl]-2-pyrimidinamine] | < 0.5 µM | < 0.1 µM | < 0.5 µM | < 0.5 µM | < 0.5 µM | < 0.5 µM |  |  |
| CCNc1nc(-c2cc(OC)ccc2F)c(-c2ccnc(Nc3ccc(N4CCN(C)CC4)c(F)c3)n2)s1 [Example 56, 4-{2-(Ethylamino)-4-[2-fluoro-5-(methyloxy)phenyl]-1,3-thiazol-5-yl}-N-[3-fluoro-4-(4-methyl-1-piperazinyl)phenyl]-2-pyrimidinamine] | 0.5 to 5 µM | < 0.1 µM | < 0.5 µM | < 0.5 µM | < 0.5 µM | < 0.5 µM |  |  |
| CCNc1nc(-c2cc(C)cc(OC)c2)c(-c2ccnc(Nc3ccc(N4CCOCC4)c(F)c3)n2)o1.O=C(O)C(F)(F)F [Example 129] |  |  | 0.5 to 5 µM | 0.5 to 5 µM |  | 0.5 to 5 µM |  | +++ (at least one pIC50 measurement of greater than 7 against B-Raf) |
| CCNc1nc(-c2cc(C)cc(OC)c2)c(-c2ccnc(Nc3ccc(N4CCOCC4)c(C(=O)O)c3)n2)s1 [Example 26, 5-[(4-{2-(Ethylamino)-4-[3-methyl-5-(methyloxy)phenyl]-1,3-thiazol-5-yl}-2-pyrimidinyl)amino]-2-(4-morpholinyl)benzoic acid] | < 0.5 µM | < 0.1 µM |  |  | < 0.5 µM |  |  |  |
| CCNc1nc(-c2cccc(OC)c2)c(-c2ccnc(Nc3ccc(CCN4CCN(S(C)(=O)=O)CC4)nc3)n2)s1 [Example 40, 4-{2-(Ethylamino)-4-[3-(methyloxy)phenyl]-1,3-thiazol-5-yl}-N-(6-{2-[4-(methylsulfonyl)-1-piperazinyl]ethyl}-3-pyridinyl)-2-pyrimidinamine] | 0.5 to 5 µM | < 0.1 µM |  |  | < 0.5 µM |  |  |  |
| CCNc1nc(-c2cc(C)cc(OC)c2)c(-c2ccnc(Nc3ccc(N4CCN5CCCCC5C4)c(F)c3)n2)o1 (stereo not shown) [Example 132] | 0.5 to 5 µM | < 0.1 µM |  |  | 0.5 to 5 µM |  |  |  |
| CCNc1nc(-c2ccnc(OC)c2)c(-c2ccnc(Nc3ccc(OCCN4CCCC4)c(Cl)c3)n2)s1 [Example 58, N-(3-Chloro-4-{[2-(1-pyrrolidinyl)ethyl]oxy}phenyl)-4-{2-(ethylamino)-4-[2-(methyloxy)-4-pyridinyl]-1,3-thiazol-5-yl}-2-pyrimidinamine] | < 0.5 µM | < 0.1 µM |  |  | < 0.5 µM |  |  |  |
| CCNc1nc(-c2ccnc(O)c2)c(-c2ccnc(Nc3ccc(NCCN4CCCC4)c(Cl)c3)n2)s1 [Example 110] | 0.5 to 5 µM | < 0.1 µM |  |  | 0.5 to 5 µM |  |  |  |
| CCNc1nc(-c2cc(C)cc(OC)c2)c(-c2ccnc(Nc3ccc(OC4CCN(CCF)CC4)c(C)c3)n2)o1 [Example 126] | 0.5 to 5 µM | < 0.1 µM |  |  | 0.5 to 5 µM |  |  |  |
| Nc1cccc(-c2nc(N3CCCC3)sc2-c2ccnc(Nc3ccc(NCCN4CCCC4)c(F)c3)n2)c1 [Example 109] | 0.5 to 5 µM | < 0.1 µM |  |  | 0.5 to 5 µM |  |  |  |
| CCNc1nc(-c2cc(C)cc(OC)c2)c(-c2ccnc(Nc3ccc(N4CCN5CCOC[C@H]5C4)nc3)n2)s1 [Example 71, 4-{2-(Ethylamino)-4-[3-methyl-5-(methyloxy)phenyl]-1,3-thiazol-5-yl}-N-{6-[(9aR)-hexahydropyrazino[2,1-c][1,4]oxazin-8(1H)-yl]-3-pyridinyl}-2-pyrimidinamine] | < 0.5 µM | < 0.1 µM |  |  | < 0.5 µM |  |  |  |
